Measurements from US5840917A, “Phosphorylamides, their preparation and use” (Takeda Chemical Industries, Ltd., priority 1995, dated 1998).

Experiments:
[1] = tested on: Helicobacter pylori (CPY-433 F4); assay: Bacteria eradication effect of urease inhibitor (in vivo) in infected mice; details: male ICR mice, 10 mg/kg p.o. twice daily, lansoprazole 30 mg/kg s.c. once daily before first dose
[2] = biological target: T1, Helicobacter pylori-derived urease (Helicobacter pylori, UniProt P69996); assay: Screening of urease inhibitors (ammonia yield from urea); assay type: biochemical
T1 construct: an urease solution prepared from Helicobacter pylori; endogenous in cells
Procedure: Screening of Urease Inhibitors
One hundred (100) μl of 100 mM Bis-Tris buffer (pH 6.5) and 60 μl of an urease solution prepared from Helicobacter pylori were added to 20 μl of a test drug dissolved in 0.1% dimethylformamide solution. The mixture was incubated at room temperature for 30 minutes, and then 20 μl of 100 mM urea was added. The mixture was kept at room temperature for 10 minutes, and then the yielded ammonia in the incubation mixture was measured using a commercial test kit (Ammonia Test Wako®; Wako Pure Chemical). The percent inhibition against the yield of ammonia in the solvent addition group was calculated to obtain the IC50 value.

[3] = 4 days for therapy, control 0/5

T1 sequence (P69996 whole entry, looked up): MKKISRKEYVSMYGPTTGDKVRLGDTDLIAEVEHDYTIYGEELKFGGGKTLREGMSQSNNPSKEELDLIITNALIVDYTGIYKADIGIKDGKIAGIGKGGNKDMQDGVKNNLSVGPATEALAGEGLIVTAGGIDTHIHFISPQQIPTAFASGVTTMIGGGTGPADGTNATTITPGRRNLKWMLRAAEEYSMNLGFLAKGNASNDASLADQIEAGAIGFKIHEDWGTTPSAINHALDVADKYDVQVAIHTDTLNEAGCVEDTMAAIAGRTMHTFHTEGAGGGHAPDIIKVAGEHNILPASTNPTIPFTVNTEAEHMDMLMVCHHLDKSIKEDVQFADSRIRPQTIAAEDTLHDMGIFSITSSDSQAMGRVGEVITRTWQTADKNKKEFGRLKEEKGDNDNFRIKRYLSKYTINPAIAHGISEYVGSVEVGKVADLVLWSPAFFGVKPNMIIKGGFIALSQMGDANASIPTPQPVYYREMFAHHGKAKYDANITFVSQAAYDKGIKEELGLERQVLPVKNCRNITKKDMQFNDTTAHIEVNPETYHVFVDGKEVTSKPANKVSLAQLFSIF

NP(N)(=O)NC(=O)c1ccsc1 [Example 2, N-(Diaminophosphinyl)-3-thiophenecarboxamide]
Eradication Rate [1, 3]: 2/5 | IC50 [2]: 16 nM

Cc1ccc(C(=O)NP(N)(N)=O)s1 [Example 3, N-(Diaminophosphinyl)-5-methyl-2-thiophenecarboxamide]
Eradication Rate [1, 3]: 2/5 | IC50 [2]: 5.5 nM

NP(N)(=O)NC(=O)c1ccc(Cl)s1 [Example 5, N-(Diaminophosphinyl)-5-chloro-2-thiophenecarboxamide]
Eradication Rate [1, 3]: 3/5 | IC50 [2]: 3 nM

CCc1ccc(C(=O)NP(N)(N)=O)s1 [Example 9, N-(Diaminophosphinyl)-5-ethyl-2-thiophenecarboxamide]
Eradication Rate ([1]; 2 days for therapy): 1/5 | IC50 [2]: 13 nM

NP(N)(=O)NC(=O)c1csc(Br)c1 [Example 11, N-(Diaminophosphinyl)-5-bromo-3-thiophenecarboxamide]
Eradication Rate ([1]; 2 days for therapy): 1/5 | IC50 [2]: 4.2 nM

N#Cc1ccc(C(=O)NP(N)(N)=O)s1 [Example 12, N-(Diaminophosphinyl)-5-cyano-2-thiophenecarboxamide]
Eradication Rate ([1]; 2 days for therapy): 1/5 | IC50 [2]: 3.6 nM

Cc1sccc1C(=O)NP(N)(N)=O [Example 15, N-(Diaminophosphinyl)-2-methyl-3-thiophenecarboxamide]
Eradication Rate ([1]; 2 days for therapy): 2/5 | IC50 [2]: 1.7 nM

CC(=O)c1ccc(C(=O)NP(N)(N)=O)s1 [Example 17, N-(Diaminophosphinyl)-5-acetyl-2-thiophenecarboxamide]
Eradication Rate ([1]; 2 days for therapy): 1/5 | IC50 [2]: 8.2 nM

NP(N)(=O)NC(=O)c1sccc1C(F)F [Example 19, N-(Diaminophosphinyl)-3-difluoromethyl-2-thiophenecarboxamide]
Eradication Rate ([1]; 2 days for therapy): 1/5 | IC50 [2]: 4.6 nM

N#Cc1ccsc1C(=O)NP(N)(N)=O [Example 23, N-(Diaminophosphinyl)-3-cyano-2-thiophenecarboxamide]
Eradication Rate ([1]; 2 days for therapy): 1/5 | IC50 [2]: 2.2 nM

NP(N)(=O)NC(=O)c1cc(Cl)sc1Cl [Example 25, N-(Diaminophosphinyl)-2,5-dichloro-3-thiophenecarboxamide]
Eradication Rate ([1]; 2 days for therapy): 1/5 | IC50 [2]: 1.1 nM

NP(N)(=O)NC(=O)c1ccsc1Br [Example 26, N-(Diaminophosphinyl)-2-bromo-3-thiophenecarboxamide]
Eradication Rate ([1]; 2 days for therapy): 2/5 | IC50 [2]: 1.3 nM

Cc1csc(C(=O)NP(N)(N)=O)c1 [Example 28, N-(Diaminophosphinyl)-4-methyl-2-thiophenecarboxamide]
Eradication Rate ([1]; 2 days for therapy): 1/5 | IC50 [2]: 1.5 nM

NP(N)(=O)NC(=O)c1csc(Cl)c1 [Example 30, N-(Diaminophosphinyl)-5-chloro-3-thiophenecarboxamide]
Eradication Rate ([1]; 2 days for therapy): 1/5 | IC50 [2]: 4.3 nM

Cc1cc(C(=O)NP(N)(N)=O)c(C)s1 [Example 32, N-(Diaminophosphinyl)-2,5-dimethyl-3-thiophenecarboxamide]
Eradication Rate ([1]; 2 days for therapy): 2/5 | IC50 [2]: 8.7 nM

Cc1occc1C(=O)NP(N)(N)=O [Example 40, N-(Diaminophosphinyl)-2-methyl-3-furancarboxamide]
Eradication Rate ([1]; 2 days for therapy): 1/5 | IC50 [2]: 7.9 nM

NP(N)(=O)NC(=O)c1coc(Br)c1 [Example 41, N-(Diaminophosphinyl)-5-bromo-3-furancarboxamide]
Eradication Rate ([1]; 2 days for therapy): 1/5 | IC50 [2]: 7.7 nM

CCc1ccc(C(=O)NP(N)(N)=O)o1 [Example 44, N-(Diaminophosphinyl)-5-ethyl-2-furancarboxamide]
Eradication Rate ([1]; 2 days for therapy): 1/5 | IC50 [2]: 14 nM

NP(N)(=O)NC(=O)c1ccoc1Cl [Example 45, N-(Diaminophosphinyl)-2-chloro-3-furancarboxamide]
Eradication Rate ([1]; 2 days for therapy): 1/5 | IC50 [2]: 1.4 nM

NP(N)(=O)NC(=O)c1coc(Cl)c1 [Example 46, N-(Diaminophosphinyl)-5-chloro-3-furancarboxamide]
Eradication Rate ([1]; 2 days for therapy): 1/5 | IC50 [2]: 5.7 nM

NP(N)(=O)NC(=O)CCc1ccc(F)cc1 [Reference Example 38, N-(Diaminophosphinyl)-3-(4-fluorophenyl)propionamide]
IC50 [2]: 9.7 nM

NP(N)(=O)NC(=O)c1ccc(Cl)cc1 [compound 7, N-(Diaminophosphinyl)-4-chlorobenzamide]
IC50 [2]: 6.9 nM

NP(N)(=O)NC(=O)c1ccccc1[N+](=O)[O-] [compound 18, N-(Diaminophosphinyl)-2-nitrobenzamide]
IC50 [2]: 5.1 nM

NP(N)(=O)NC(=O)c1ccc(C(F)(F)F)cc1 [compound 19, N-(Diaminophosphinyl)-4-trifluoromethylbenzamide]
IC50 [2]: 12 nM

NP(N)(=O)NC(=O)C=Cc1ccc(F)cc1 [compound 20, N-(Diaminophosphinyl)-4-fluorocinnamamide]
IC50 [2]: 6.5 nM

NP(N)(=O)NC(=O)c1cc(F)cc(F)c1 [compound 21, N-(Diaminophosphinyl)-3,5-difluorobenzamide]
IC50 [2]: 7.9 nM

NP(N)(=O)NC(=O)c1ccccc1C(F)(F)F [compound 24, N-(Diaminophosphinyl)-2-trifluoromethylbenzamide]
IC50 [2]: 8 nM

NP(N)(=O)NC(=O)c1cccc2ccccc12 [compound 26, N-(Diaminophosphinyl)-1-naphthalenecarboxamide]
IC50 [2]: 13 nM

NP(N)(=O)NC(=O)c1cccc(Cl)c1 [compound 27, N-(Diaminophosphinyl)-3-chlorobenzamide]
IC50 [2]: 3.9 nM

NP(N)(=O)NC(=O)c1ccc2ccccc2c1 [compound 28, N-(Diaminophosphinyl)-2-naphthalenecarboxamide]
IC50 [2]: 35 nM

NP(N)(=O)NC(=O)C=Cc1ccc(Cl)cc1 [compound 31, N-(Diaminophosphinyl)-4-chlorocinnamamide]
IC50 [2]: 71 nM

N#Cc1ccc(C=CC(=O)NP(N)(N)=O)cc1 [compound 32, N-(Diaminophosphinyl)-4-cyanocinnamamide]
IC50 [2]: 14 nM

NP(N)(=O)NC(=O)C=Cc1ccccc1[N+](=O)[O-] [compound 33, N-(Diaminophosphinyl)-2-nitrocinnamamide]
IC50 [2]: 8.3 nM

NP(N)(=O)NC(=O)C=Cc1ccc(F)cc1F [compound 34, N-(Diaminophosphinyl)-2,4-difluorocinnamamide]
IC50 [2]: 22 nM

NP(N)(=O)NC(=O)C=Cc1cccc(F)c1 [compound 35, N-(Diaminophosphinyl)-3-fluorocinnamamide]
IC50 [2]: 17 nM

NP(N)(=O)NC(=O)C=Cc1ccc(Cl)c(Cl)c1 [compound 36, N-(Diaminophosphinyl)-3,4-dichlorocinnamamide]
IC50 [2]: 8.9 nM

NP(N)(=O)NC(=O)CCc1ccc(Cl)cc1 [compound 39, N-(Diaminophosphinyl)-3-(4-chlorophenyl)propionamide]
IC50 [2]: 5.9 nM

N#Cc1ccc(CCC(=O)NP(N)(N)=O)cc1 [compound 40, N-(Diaminophosphinyl)-3-(4-cyanophenyl)propionamide]
IC50 [2]: 18 nM

NP(N)(=O)NC(=O)CCc1cccc(F)c1 [compound 42, N-(Diaminophosphinyl)-3-(3-fluorophenyl) propionamide]
IC50 [2]: 22 nM

Nc1ccccc1CCC(=O)NP(N)(N)=O [compound 43, N-(Diaminophosphinyl)-3-(2-aminophenyl) propionamide]
IC50 [2]: 71 nM

Nc1ccc(OCC(=O)NP(N)(N)=O)cc1 [compound 44, N-(Diaminophosphinyl)-4-aminophenoxyacetamide]
IC50 [2]: 11 nM
